Measured values reported in paper PMC3857039, “First Quantitative Imaging of Organic Fluorine within Angiogenic Tissues by Particle Induced Gamma-Ray Emission (PIGE) Analysis: First PIGE Organic Fluorine Imaging” (Pharmaceutics, 2011).
Blank lines part the entries; values can stand above or below the molecule they belong to. Where a SMILES comes first, the peptide text is derived from it. [ ]: non-standard residue; d: D form. The star is where a group is joined. X1 = FC(F)(F)C(F)(F)C(F)(F)C(F)(F)C(F)(F)C(F)(F)CCCOCCOCCOCCN*

Columns and labels:
[1] = test system: chicken chorioallantoic membrane (CAM); test: PIGE/RBS quantification of fluorine in normal CAM tissue and capillaries after intravascular injection of fluorinated tracer; assay type: in vivo; details: for Average fluorine concentration, physiological tissue, Capillaries / Average fluorine concentration, physiological tissue, CAM (surrounding tissue): 100 μL per embryo, sacrifice 6 h after injection, PIGE
Method: (§1) In preparation for the intravascular injection, 274 mg of FDG is dissolved in 1 mL sterile PBS. For the polyfluorinated glucose solution, 10 mg of the probe was added to 1 mL of polypropylene glycol (MW = 400 g/mol). F13-CBO-P11 solutions were prepared in sterile PBS. For the latter, solutions were obtained by the addition of 20 mg and 35 mg of peptide in 1 mL sterile PBS.
(§2) Fertilized chicken eggs were incubated at 37 °C in a humidified atmosphere. On day 4 of incubation, a window was made in the shell in order to visualize the chorio allantoïc membrane (CAM). On embryonic day 10, in the tumor group, a ring was put on the CAM and U87 glioma cells (5 million cells per egg suspended in 20 μL of medium) were deposited on the CAM within the ring after gentle laceration of the surface. In the other group, a nylon grid was put on the CAM to allow normal tissue to grow on the grid. After 7 days of implantation (embryonic day 17), FDG, polyfluorinated glucose and F13-CBO-P11 solutions were then injected in a blood vessel of the CAM of each egg (100 μL per embryo). Embryos were sacrificed 6 hours after injection. All samples were removed and snap-frozen in liquid nitrogen-chilled isopentane at −160 °C. CAM samples and normal tissue (S1, Scheme 1) coming from nylon grid were then put on targets (2 mm-thick and 20 mm-diameter aluminium target with a 5 mm-hole in the centre) and freeze-dried during 3 days at−30 °C in a cryostat (CM3050S, Leica Microsystems). Tumors were conserved at −80 °C until sectioning. For tumor tissue, successive serial sections (at 100, 200 and 300 μm) were obtained from the CAM to the tumor (S2 to S4, Scheme 1) using the cryostat, put on targets and freeze-dried. After sample preparation, microphotographs were taken to monitor the experiment.
(§3) Particle Induced γ-ray Emission (PIGE) and Rutherford Backscattering Spectrometry (RBS) were performed simultaneously to determine trace elements quantitative distribution, such as F and Fe, and major element as C, N, and O determination, respectively (Figure1). Analyses were performed with proton beam energy at 3.4 MeV in order to benefit from a high cross section for the nuclear reaction for fluorine. Analyses were realized on zones of typically 850 × 850 μm in a scanning mode of the proton beam. The beam was focused onto the sample surface to a spot of 5 μm in diameter, resulting in a proton beam current of 500 pA as measured with a Faraday cup below the sample. Characteristics gamma rays emitted from elements of the target were detected with an ultralow energy planar germanium detector (surface of the Ge crystal is 100 mm², thickness 10 mm) placed at 45° from incident beam. The γ-ray detector was covered by a 100 μm thick carbon filter (hole 0.2% of the total filter surface), to protect the γ-ray detector from backscattered particles. The RBS measurements were performed using a PIPS detector (passivated implanted planar silicon) placed at 135° from the incident beam direction.
(§4) CaF2 micromatter standard (certified material from NIST) and a PVDF film (polyvinylidene difluoride, 25 μm thick) were used as external standard in order to verify the quantification process. γ-ray emission data were analyzed with the Supavisio software to create mask of interesting areas of selected chemical elements. RBS data were analyzed with SIMNRA code.
The quantification of fluorine was performed by comparative analysis with reference standard. PVDF films were analyzed in order to simulate the composition and thickness of biological samples. PyMCA software was used to fit the 110 keV γ peak on PIGE spectra on a PVDF film and biological samples. The intensity of the peak in the PVDF was used to normalize yield in samples [14, 16].
The combination of PIGE and RBS quantitative data were used for mass normalization of y-ray emission, leading to element concentrations expressed in terms of μg of element per g of dry mass sample. […]

[2] = test system: U87 human glioma cells tumor xenografted on the CAM; test: PIGE/RBS quantification of fluorine in sections of U87 glioma tumor implanted on the CAM after intravascular injection of fluorinated tracer; assay type: in vivo, chicken; details: for Average fluorine concentration, pathological tissue, Tumor: FDG 1.53 M; for Average fluorine concentration, pathological tissue, Tumor / Average fluorine concentration, pathological tissue, tumor section (surrounding tissue) / Average fluorine concentration, pathological tissue, capillaries of tumor section: sacrifice 6 h after injection, PIGE, per g dry mass
Method: as §1
U87 human glioma cells (ATCC) were selected for the study as an established model for malignant gliomas that form highly vascularized tumors. Cells were maintained in culture using Dulbecco's modified Eagle's medium (DMEM) with 10% FBS, L-glutamine (2 mmol L^−1), and antibiotics (penicillin 50 UI mL^−1, streptomycin 50 μg mL^−1). Cell culture was performed in a 37 °C incubator with humidified atmosphere and 5% CO2. Cells were grown to confluence, harvested after trypsinization, and re-suspended in serum-free DMEM for implantation.
as §2, §3, §4
The quantification of fluorine was performed by comparative analysis with reference standard. […]

[3] = test system: U87 human glioma cells tumor xenografted on the CAM; test: as above; assay type: in vivo, chicken; details: Sample 2, section S1 (tumor section); FDG 0.77 M in PBS, 100 μL per embryo, sacrifice 6 h after injection; PIGE; per g dry mass
[4] = Sample 3, section S1 (CAM sample, no tumor), FDG 1.53 M in PBS, per g dry mass
[5] = Sample 8, section S1 (CAM sample, no tumor), 35 mM in PBS, per g dry mass
[6] = Sample 6, serial tumor section S2, 20 mM in PBS, 100 μL per embryo
[7] = Sample 7, serial tumor section S2, 35 mM in PBS, 100 μL per embryo

Ratio of fluorine concentrations between capillaries and tissues ([1]; FDG 0.77 and 1.53 M): close to one
Average fluorine concentration within capillaries as well as in surrounding tissues (homogeneous distribution) ([1]; FDG 0.77 and 1.53 M, overall average of Table 1): about 1600 μg/g
Average fluorine concentration, physiological tissue, CAM ([1]; Sample 1, section S1 (CAM sample, no tumor), FDG 1.53 M in PBS, 100 μL per embryo into CAM blood vessel, embryonic day 17, sacrifice 6 h after injection, freeze-dried, PIGE 3.4 MeV, per g dry mass): 1560±180 μg/g
Average fluorine concentration, physiological tissue, Capillaries ([1]; Sample 1, section S1 (CAM sample, no tumor), FDG 1.53 M in PBS, per g dry mass): 960±100 μg/g
Average fluorine concentration, physiological tissue, CAM (surrounding tissue) [1, 4]: 1820±210 μg/g
Average fluorine concentration, physiological tissue, Capillaries [1, 4]: 1460±170 μg/g
Average fluorine concentration, pathological tissue, Tumor ([2]; Sample 3, serial tumor section S2, 100 μL per embryo): 1640±170 μg/g
Average fluorine concentration, pathological tissue, Tumor ([2]; Sample 3, serial tumor section S3, 100 μL per embryo): 1950±240 μg/g
Average fluorine concentration, pathological tissue, Tumor ([2]; Sample 3, serial tumor section S4, 100 μL per embryo): 1470±140 μg/g
Average fluorine concentration, pathological tissue, Tumor [3]: 1570±180 μg/g
Compound: O=C[C@H]([18F])[C@@H](O)[C@H](O)[C@H](O)CO [FDG, 2-deoxy-2-[18F]fluoro-D-glucose]

Average fluorine concentration, physiological tissue, CAM (surrounding tissue) [1, 5]: 2050±175 μg/g
Average fluorine concentration, physiological tissue, Capillaries [1, 5]: 6570±555 μg/g
Fold higher fluorine concentration in capillaries than in surrounding tissue, normal tissue ([1]; sample 8, 35 mM): 3 times
Average fluorine concentration, pathological tissue, tumor section (surrounding tissue) ([2]; Sample 6, serial tumor section S1, 20 mM in PBS, 100 μL per embryo (0.49 mg fluorine)): 450±35 μg/g
Average fluorine concentration, pathological tissue, capillaries of tumor section ([2]; Sample 6, serial tumor section S1, 20 mM in PBS, 100 μL per embryo): 610±70 μg/g
Average fluorine concentration, pathological tissue, capillaries of tumor section [2, 6]: 360±50 μg/g
Average fluorine concentration, pathological tissue, tumor section (surrounding tissue) [2, 6]: 270±20 μg/g
Average fluorine concentration, pathological tissue, tumor section (surrounding tissue) ([2]; Sample 7, serial tumor section S1, 35 mM in PBS, 100 μL per embryo (0.85 mg fluorine)): 345±30 μg/g
Average fluorine concentration, pathological tissue, capillaries of tumor section ([2]; Sample 7, serial tumor section S1, 35 mM in PBS, 100 μL per embryo): 650±70 μg/g
Average fluorine concentration, pathological tissue, capillaries of tumor section [2, 7]: 460±45 μg/g
Average fluorine concentration, pathological tissue, tumor section (surrounding tissue) [2, 7]: 215±35 μg/g
Dose dependence of fluorine uptake ([2]; sample 6 (20 mM) versus sample 7 (35 mM)): not dose dependant
Fold higher fluorine concentration in capillaries than in surrounding tissue, tumor sections ([2]; samples 6 and 7, 20 and 35 mM): 1.5 times
Compound: CC[C@H](C)[C@@H]1NC(=O)[C@H](Cc2c[nH]cn2)NC(=O)[C@H](CCC(N)=O)NC(=O)CNC(=O)[C@H](CCC(N)=O)NC(=O)[C@H](Cc2c[nH]cn2)NC(=O)[C@@H]2CCCN2C(=O)[C@H](CCCCN)NC(=O)[C@H]([C@@H](C)CC)NC(=O)[C@H](CCCNC(=N)N)NC(=O)[C@H](CCSC)NC(=O)[C@H]([C@@H](C)CC)NC(=O)[C@H](CCC(N)=O)NC(=O)[C@@H]2CCCN2C(=O)[C@@H](Cc2ccccc2)NC(=O)[C@H](CCC(=O)NCCOCCOCCOCCCC(F)(F)C(F)(F)C(F)(F)C(F)(F)C(F)(F)C(F)(F)F)NC(=O)CNC1=O [Compound F13-CBO-P11] (cyclo(E(X1)[dF]PQIMRIKPHQGQHIG))
